Measurements reported in patent US8927587B2, “Chemical compounds” (Pfizer Limited, priority 2012, dated 2015).
pIC50: −log10 of the molar value. Where two headings read alike, the source gives them in different places.

Target: T1, hNav1.8 (Homo sapiens, UniProt Q9Y5Y9)
T1 construct: host or cells: HEK cells, stably transfected
Test: hNav1.8 whole-cell patch-clamp electrophysiology (conventional or PatchXpress 7000) in stably transfected HEK cells
Assay type: cell-based
Source text: The ability of the benzimidazole derivatives of the formula (I) to inhibit the Nav1.8 channel may be measured using the assay described below.
HEK cells stably transfected with hNav1.8, purchased from Millipore (Millipore Corp., Billerica, Mass. 01821), were maintained according to manufacturer's instructions. For electrophysiological studies, cells were removed from the culture flask by brief trypsinization and re-plated at low density onto glass cover slips. Cells were typically used for electrophysiological experiments within 24 to 72 h after plating.
Cover slips containing HEK cells expressing hNav1.8 were placed in a bath on the stage of an inverted microscope and perfused (approximately 1 ml/min) with extracellular solution of the following composition: 138 mM NaCl, 2 mM CaCl2, 5.4 mM KCl, 1 mM MgCl2, 10 mM glucose, and 10 mM HEPES, pH 7.4, with NaOH. […] The osmolarity of the extracellular and intracellular solutions was 300 mOsm/kg and 295 mOsm/kg, respectively. All recordings were made at room temperature (22-24° C.) using AXOPATCH 200B amplifiers and PCLAMP software (Axon Instruments, Burlingame, Calif.).
hNav1.8 currents in HEK cells were measured using the whole-cell configuration of the patch-clamp technique (Hamill et al., 1981). Uncompensated series resistance was typically 2 to 5 mega ohms and >85% series resistance compensation was routinely achieved. As a result, voltage errors were negligible and no correction was applied. Current records were acquired at 20 to 50 KHz and filtered at 5 to 10 KHz.
HEK cells stably transfected with hNav1.8 were viewed under Hoffman contrast optics and placed in front of an array of flow pipes emitting either control or compound-containing extracellular solutions. All compounds were dissolved in dimethyl sulfoxide to make 10 mM stock solutions, which were then diluted into extracellular solution to attain the final concentrations desired.
The voltage-dependence of inactivation was determined by applying a series of depolarizing prepulses (8 sec long in 10 mV increments) from a negative holding potential. The voltage was then immediately stepped to 0 mV to assess the magnitude of the sodium current. Currents elicited at 0 mV were plotted as a function of prepulse potential to allow estimation of the voltage at which 50% of the channels were inactivated (midpoint of inactivation or V1/2). Compounds were tested for their ability to inhibit hNav1.8 sodium channels by activating the channel with a 20 msec voltage step to 0 mV following an 8 second conditioning prepulse to the empirically determined V1/2. Compound effect (% inhibition) was determined by difference in current amplitude before and after application of test compounds. For ease of comparison, “estimated IC50” values were calculated from single point electrophysiology data by the following equation, (tested concentration, uM)×(100-% inhibition/% inhibition). Inhibition values<20% and >80% were excluded from the calculation.
In some cases electrophysiological assays were conducted with PatchXpress 7000 hardware and associated software (Molecular Devices Corp). All assay buffers and solutions were identical to those used in conventional whole-cell voltage clamp experiments described above. hNav1.8 cells were grown as above to 50%-80% confluency and harvested by trypsinization. Trypsinized cells were washed and resuspended in extracellular buffer at a concentration of 1×10^6 cells/ml. The onboard liquid handling facility of the PatchXpress was used for dispensing cells and application of test compounds. Determination of the voltage midpoint of inactivation was as described for conventional whole-cell recordings. Cells were then voltage-clamped to the empirically determined V1/2 and current was activated by a 20 msec voltage step to 0 mV.
Estimated IC50 values for the compounds of formula (I) exemplified above are as follows. […]

[1] = estimated IC50 calculated from single point % inhibition, HEK cells expressing hNav1.8, 8 sec prepulse to V1/2, 20 msec step to 0 mV, average of replicates, read-out: Nav1.8 EIC50

T1 sequence (Q9Y5Y9 whole entry): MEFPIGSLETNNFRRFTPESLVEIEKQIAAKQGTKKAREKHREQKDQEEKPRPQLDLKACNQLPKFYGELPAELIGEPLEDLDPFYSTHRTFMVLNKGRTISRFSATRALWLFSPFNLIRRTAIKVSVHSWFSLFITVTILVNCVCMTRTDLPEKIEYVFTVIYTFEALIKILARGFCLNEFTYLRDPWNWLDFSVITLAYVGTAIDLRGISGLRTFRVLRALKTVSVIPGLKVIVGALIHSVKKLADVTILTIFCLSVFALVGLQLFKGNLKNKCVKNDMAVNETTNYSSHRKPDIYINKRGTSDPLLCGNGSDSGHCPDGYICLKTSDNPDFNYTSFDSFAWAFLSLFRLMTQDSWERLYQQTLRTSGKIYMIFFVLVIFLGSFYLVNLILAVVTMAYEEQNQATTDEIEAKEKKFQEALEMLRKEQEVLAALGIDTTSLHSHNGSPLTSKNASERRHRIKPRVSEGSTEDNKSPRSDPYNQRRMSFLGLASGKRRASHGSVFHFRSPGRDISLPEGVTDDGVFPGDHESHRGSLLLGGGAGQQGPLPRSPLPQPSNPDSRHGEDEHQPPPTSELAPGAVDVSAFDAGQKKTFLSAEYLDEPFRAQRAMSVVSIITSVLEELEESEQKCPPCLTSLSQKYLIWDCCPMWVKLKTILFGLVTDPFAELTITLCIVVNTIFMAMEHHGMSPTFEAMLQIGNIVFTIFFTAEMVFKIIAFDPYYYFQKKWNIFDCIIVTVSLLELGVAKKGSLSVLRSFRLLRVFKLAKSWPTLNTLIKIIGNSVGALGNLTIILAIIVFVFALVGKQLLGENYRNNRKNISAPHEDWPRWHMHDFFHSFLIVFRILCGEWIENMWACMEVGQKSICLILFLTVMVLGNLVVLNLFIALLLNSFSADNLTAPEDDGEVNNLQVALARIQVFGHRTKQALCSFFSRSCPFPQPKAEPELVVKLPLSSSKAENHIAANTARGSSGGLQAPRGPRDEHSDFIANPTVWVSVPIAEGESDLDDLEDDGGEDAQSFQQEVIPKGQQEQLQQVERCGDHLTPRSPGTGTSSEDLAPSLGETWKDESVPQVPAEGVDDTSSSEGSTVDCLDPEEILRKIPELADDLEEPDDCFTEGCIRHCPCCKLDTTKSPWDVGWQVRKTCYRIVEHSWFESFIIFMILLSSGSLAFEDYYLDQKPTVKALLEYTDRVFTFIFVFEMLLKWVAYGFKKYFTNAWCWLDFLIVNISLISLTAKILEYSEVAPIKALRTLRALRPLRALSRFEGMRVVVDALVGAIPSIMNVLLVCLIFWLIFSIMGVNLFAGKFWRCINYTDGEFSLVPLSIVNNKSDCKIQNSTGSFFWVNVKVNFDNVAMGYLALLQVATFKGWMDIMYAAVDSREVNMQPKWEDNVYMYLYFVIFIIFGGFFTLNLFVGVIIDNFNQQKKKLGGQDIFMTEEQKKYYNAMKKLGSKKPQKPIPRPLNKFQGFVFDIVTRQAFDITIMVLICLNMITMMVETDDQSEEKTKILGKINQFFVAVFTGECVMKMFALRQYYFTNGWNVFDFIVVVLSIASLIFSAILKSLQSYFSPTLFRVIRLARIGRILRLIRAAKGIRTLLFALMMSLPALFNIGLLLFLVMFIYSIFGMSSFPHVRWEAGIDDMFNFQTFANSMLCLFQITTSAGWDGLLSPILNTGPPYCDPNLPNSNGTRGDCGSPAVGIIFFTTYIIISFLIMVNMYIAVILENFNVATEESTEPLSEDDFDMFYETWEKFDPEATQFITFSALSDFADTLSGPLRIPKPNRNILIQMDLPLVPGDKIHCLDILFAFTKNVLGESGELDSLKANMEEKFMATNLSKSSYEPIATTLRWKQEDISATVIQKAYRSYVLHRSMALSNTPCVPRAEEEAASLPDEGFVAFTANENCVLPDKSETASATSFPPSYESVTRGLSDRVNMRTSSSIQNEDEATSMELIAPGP

| Compound | pIC50 [1] | pIC50 |
| --- | --- | --- |
| CC(C)(C)[C@@H](N)c1nc2cc(-c3ccc(C#N)cc3)ccc2[nH]1 [Example 48, 4-{2-[(1R)-1-Amino-2,2-dimethylpropyl]-1H-benzimidazol-5-yl}benzonitrile] | 6.33 | – |
| CC(C)(N)c1nc2cc(-c3ccc(Cl)c(C#N)c3)ccc2[nH]1 [Example 71, 5-[2-(1-Amino-1-methylethyl)-1H-benzimidazol-5-yl]-2-chlorobenzonitrile] | 5.41 | – |
| CC(C)(C)c1ccc2[nH]c(C3(N)CCCCC3)nc2c1 [Example 17, 1-(5-tert-Butyl-1H-benzimidazol-2-yl)cyclohexanamine] | – | 6.33 |
| CC(C)(C)c1ccc2[nH]c([C@@H](N)CO)nc2c1 [Example 20, (2R)-2-Amino-2-(5-tert-butyl-1H-benzimidazol-2-yl)ethanol] | 6.97 | – |
| COC[C@H](N)c1nc2cc(C(C)(C)C)ccc2[nH]1 [Example 12, (1R)-1-(5-tert-Butyl-1H-benzimidazol-2-yl)-2-methoxyethanamine] | 6.61 | – |
| C[C@H](N)c1nc2cc(-c3ccc(C#N)cc3)ccc2[nH]1 [Example 64, 4-{2-[(1S)-1-aminoethyl]-1H-benzimidazol-5-yl}benzonitrile] | 6.00 | – |
| C[C@@H](OC(N)=O)[C@H](N)c1nc2cc(C(C)(C)C)ccc2[nH]1 [Example 107, (1R,2R)-1-Amino-1-(6-tert-butyl-1H-benzimidazol-2-yl)propan-2-yl carbamate] | 6.45 | – |
| CC[C@@H](C)[C@@H](N)c1nc2cc(C(C)(C)C)ccc2[nH]1 [Example 23, (1R,2R)-1-(5-tert-Butyl-1H-benzimidazol-2-yl)-2-methylbutan-1-amine] | 7.35 | – |
| CCCCc1ccc2[nH]c(C(C)(C)N)nc2c1 [Example 65, 2-(5-Butyl-1H-benzimidazol-2-yl)propan-2-amine] | 5.57 | – |
| CC(C)(C)c1ccc2[nH]c([C@H]3CCCN3)nc2c1 [Example 25, 5-tert-Butyl-2-[(2R)-pyrrolidin-2-yl]-1H-benzimidazole] | 7.13 | – |
| CC(C)(C)c1ccc2[nH]c([C@@H](N)C(C)(C)C)nc2c1 [Example 6, (1S)-1-(5-tert-Butyl-1H-benzimidazol-2-yl)-2,2-dimethylpropan-1-amine] | 6.36 | – |
| CCCC[C@H](N)c1nc2cc(-c3ccc(C#N)cc3)ccc2[nH]1 [Example 60, 4-{2-[(1S)-1-aminopentyl]-1H-benzimidazol-5-yl}benzonitrile] | 6.78 | – |
| N#Cc1ccc(-c2ccc3[nH]c([C@H]4NCC[C@@H]4O)nc3c2)cc1 [Example 50, 4-{2-[(2R,3S)-3-Hydroxypyrrolidin-2-yl]-1H-benzimidazol-5-yl}benzonitrile] | 5.74 | – |
| CC(C)[C@@H](N)c1nc2cc(C(C)(C)C)ccc2[nH]1 [Example 9, (1R)-1-(5-tert-Butyl-1H-benzimidazol-2-yl)-2-methylpropan-1-amine] | 6.46 | – |
| CC(C)(C)c1ccc2[nH]c([C@@H](N)C3CCCC3)nc2c1 [Example 3, (S)-1-(5-tert-Butyl-1H-benzimidazol-2-yl)-1-cyclopentylmethanamine] | 7.90 | – |
| CC(C)(C)c1ccc2[nH]c(C3(N)CCC3)nc2c1 [Example 4, 1-(5-tert-Butyl-1H-benzimidazol-2-yl)cyclobutanamine] | 6.35 | – |
| CC(C)(C)c1ccc2[nH]c([C@@H](N)COC(N)=O)nc2c1 [Example 143, (R)-2-Amino-2-(5-(tert-butyl)-1H-benzo[d]imidazol-2-yl)ethyl carbamate] | 7.07 | – |
| CC(C)(N)c1nc2cc(C3CCCCC3)ccc2[nH]1 [Example 66, 2-(5-Cyclohexyl-1H-benzimidazol-2-yl)propan-2-amine] | 6.00 | – |

Further lines, with some results ahead:

| pIC50 [1] | Compound | pIC50 |
| --- | --- | --- |
| 6.73 | CC[C@H](N)c1nc2cc(CC(C)(C)C)ccc2[nH]1 [Example 112, (1S)-1-[5-(2,2-Dimethylpropyl)-1H-benzimidazol-2-yl]propan-1-amine] | – |
| 6.97 | C[C@@H](O)[C@H](N)c1cn2cc(-c3ccc(C#N)cc3)ccc2n1 [Example 154, 4-{2-[(1R,2R)-1-Amino-2-hydroxypropyl]imidazo[1,2-a]pyridin-6-yl}benzonitrile] | – |
| 7.09 | CO[C@H](C)[C@H](N)c1nc2cc(-c3ccc(C#N)cc3Cl)ccc2[nH]1 [Example 84, 4-{2-[(1R,2R)-1-Amino-2-methoxypropyl]-1H-benzimidazol-5-yl}-3-chlorobenzonitrile] | – |
| 7.56 | CCC[C@H](N)c1nc2cc(-c3ccc(C#N)c(F)c3)ccc2[nH]1 [Example 146, 4-{2-[(1S)-1-Aminobutyl]-1H-benzimidazol-5-yl}-2-fluorobenzonitrile] | – |
| 6.49 | N#Cc1ccc(-c2ccc3[nH]c([C@@H](N)CO)nc3c2)cc1 [Example 82, 4-{2-[(1R)-1-Amino-2-hydroxyethyl]-1H-benzimidazol-5-yl}benzonitrile] | – |
| 5.80 | C[C@H](C(N)=O)[C@H](N)c1nc2cc(C(C)(C)C)ccc2[nH]1 (single isomer, unassigned) [Example 104] | – |
| 5.52 | C[C@@H](O)[C@H](N)c1nc2c(Cl)c(-c3ccc(C#N)c(F)c3)ccc2[nH]1 [Example 121, 4-{2-[(1R,2R)-1-Amino-2-hydroxypropyl]-4-chloro-1H-benzimidazol-5-yl}-2-fluorobenzonitrile] | – |
| 5.60 | N#Cc1ccc(-c2ccc3[nH]c([C@@H](N)CC(N)=O)nc3c2)cc1F [Example 117, (3S)-3-Amino-3-[5-(4-cyano-3-fluorophenyl)-1H-benzimidazol-2-yl]propanamide] | – |
| 6.00 | CC(C)c1ccc2[nH]c([C@H](N)[C@@H](C)O)nc2c1 [Example 148, (1S,2R)-1-Amino-1-[5-(propan-2-yl)-1H-benzimidazol-2-yl]propan-2-ol] | – |
| 6.32 | CO[C@H](C)[C@H](N)c1nc2cc(-c3ccccc3C#N)ccc2[nH]1 [Example 77, 2-{2-[(1R,2R)-1-Amino-2-methoxypropyl]-1H-benzimidazol-5-yl}benzonitrile] | – |
| 6.04 | C[C@@H](O)[C@@H](N)c1nc2cc(-c3ccc(C#N)cc3)ccc2[nH]1 [Example 137, 4-{2-[(1S,2R)-1-Amino-2-hydroxypropyl]-1H-benzimidazol-5-yl}benzonitrile] | – |
| 7.02 | COC[C@H](N)c1nc2cc(-c3ccc(C#N)cc3)ccc2[nH]1 [Example 153, 4-{2-[(1R)-1-Amino-2-methoxyethyl]-1H-benzimidazol-5-yl}benzonitrile] | – |
| 6.65 | CC(C)(C)c1ccc2[nH]c([C@@H](N)CCCO)nc2c1 [Example 140, (4S)-4-Amino-4(5-tert-butyl-1H-benzimidazol-2-yl)butan-1-ol] | – |
| 6.13 | CO[C@@H](C)[C@@H](N)c1nc2cc(-c3ccc(C#N)cc3)ccc2[nH]1 [Example 93, 4-{2-[(1S,2S)-1-Amino-2-methoxypropyl]-1H-benzimidazol-5-yl}benzonitrile] | – |
| 5.60 | C[C@@H](O)[C@H](N)c1nc2c(Cl)c(-c3ccc(C#N)cc3)ccc2[nH]1 [Example 99, 4-{2-[(1R,2R)-1-Amino-2-hydroxypropyl]-4-chloro-1H-benzimidazol-5-yl}benzonitrile] | – |
| 5.87 | C[C@@H](O)[C@H](N)c1nc2c(F)c(-c3ccc(C#N)cc3)ccc2[nH]1 [Example 98, 4-{2-[(1R,2R)-1-Amino-2-hydroxypropyl]-4-fluoro-1H-benzimidazol-5-yl}benzonitrile] | – |
| 7.38 | CC[C@@H](C(N)=O)[C@H](N)c1nc2cc(C(C)(C)C)ccc2[nH]1 [Example 144, (R)-2-((S)-Amino-(6-(tert-butyl)-1H-benzo[d]imidazol-2-yl)methyl)butanamide] | – |
| 5.87 | CC(C)(C)c1ccc2[nH]c([C@H]3CCN3)nc2c1 [Example 130, 2-[(2R)-Azetidin-2-yl]-5-tert-butyl-1H-benzimidazole] | – |
